Data as given in paper PMC3419577 (The Journal of neuroscience : the official journal of the …, 2012).

Test system: cells in posterior cortex (V1), fresh frozen sections
Assay: Binding of AP-fusion proteins on fresh-frozen brain sections
Parameters: species or system mouse
Conditions: AP staining, competitor with AP-NtHD

Question: For “Full-length Otx2: non-tagged, full-length Otx2 used as competitor”, which “competition of AP-NtHD binding” value is on record?
Answer: The value was “disrupts AP-NtHD cortical binding”.
